A short description of one data set: MDCK cell permeability. Particulars: dog, MDCK.
A further data set deals with MDCK cells. The data set can be described thus: MDCK cell permeability. The settings on record: MDCK cell line, 0.5% BSA.
The nature of a further data set: in vitro. The settings on record: dog, MDCK, MDCK cells.
Another data set has as its target T1, NKAα4 (Rattus norvegicus, UniProt Q64541).
T1 construct: made in house; host or cells: Sf9 insect cells (baculovirus infection), cell homogenates
The data set can be described thus: Na,K-ATPase activity assay, α4β1 expressed in Sf9 insect cells. Format: biochemical. As for the experimental part:
The NKA α1 and α4 isoforms were expressed in Sf9 insect cells as previously described. Briefly, cells were cultured in suspension at 27 °C in Grace’s medium (JRH Biosciences, Lenexa, KS, USA) with 3.3 g/L of lactalbumin hydrolysate and 3.3 g/L of yeastolate and supplemented with 10% (v/v) fetal bovine serum, 100 units/mL of penicillin, 100 μg/mL of streptomycin, and 0.25 μg/mL of fungizone. For infections, cells were placed on 150 mm Petri dishes and infected with baculoviruses coding for the NKA α1β1 and α4β1 isozymes. Three days after infection, cells were scraped from the culture plates, centrifuged at 1500× g for 10 min, and washed twice in 10 mM imidazole hydrochloride (pH 7.5) and 1 mM EGTA (suspension buffer). Cells were then placed in a suspension buffer plus the addition of 0.32 M sucrose and stored at −20 °C or directly used for assays.
The Na,K-ATPase activity of insect cell homogenates was determined by measuring the initial rate of release of ^32Pi from γ[^32P]-ATP as described. The incubation medium (0.25 mL final volume) contained 120 mM NaCl, 30 mM KCl, 3 mM MgCl2, 0.2 mM EGTA, 30 mM Tris-HCl (pH 7.4), and different concentrations of the corresponding compounds. The assay was started by the addition of ATP with 0.2 μCi γ[^32P]-ATP (2 mM final concentration). After 30 min of incubation at 37 °C, the reaction was stopped with trichloroacetic acid, and 5% ammonium molybdate in 4 N H2SO4 was used to complex the ^32Pi released in the Na,K-ATPase reaction. The phosphomolybdate was extracted with isobutanol as described, and 170 μL of the organic phase was taken and subjected to liquid scintillation counting. Enzymatic activity was determined as the difference in ATP hydrolysis in the absence and presence of 1 mM ouabain.
Figure 6 Selectivity of 13 and 45 on NKAα4 over the NKAα1 isoform. […] The hydrolysis of ATP in the presence of saturating concentrations of Na^+, K^+, and Mg^2+ was measured using γ[^32P]-ATP. The curves represent the best fit of the experimental data to a single population of binding sites. Each value is the mean ± SEM of three independent experiments.

For data set [1], the target named is T2, hERG channel (Homo sapiens, UniProt Q12809).
Data set [2] addresses T2, hERG channel. The data set can be described thus: hERG inhibition manual patch-clamp assay (HEK293).
A short description of data set [3]: Metabolic stability in human hepatocytes. Type of data set: in vitro ADME. Particulars: human hepatocytes. The protocol: (§1) The in vitro metabolic half-life (t1/2) is calculated using the slope of the log−linear regression from the percentage of the parent compound remaining versus the time relationship (κ). The experimental details are reported in the Supporting Information (Tables S6 and S7).

Another data set has as its system human hepatocytes. The data set can be described thus: Metabolic stability in human hepatocytes. Type of data set: in vitro ADME. As for the experimental part: as §1
Another data set deals with mouse sperm. The data set can be described thus: Sperm motility after intraperitoneal administration to mice. Format: in vivo. The settings on record: intraperitoneal 40 mg/kg for three days. As for the experimental part:
To determine whether our compounds had in vivo activity, we tested the effect of 45 after intraperitoneal administration to mice. Compound 45 was injected at a dose of 40 mg/kg for three days. This procedure is based on our previous protocol used for ouabain derivatives. After treatment for 3 days, the animals were sacrificed, sperm was isolated from the cauda epididymis, and sperm motility was assessed using CASA. Compound 45 inhibited total sperm motility by approximately 60% (Figure 9A).
Compound 45 was administered to mice by intraperitoneal injection at a dose of 40 mg/kg of body weight for three days. This protocol was used based on our previous results. At day 3 of treatment, the animals were sacrificed, and sperm was collected from the caudal section of the epididymis. Sperm was incubated under non-capacitating and capacitating conditions, and total and hyperactive sperm motility was determined using CASA.
Figure 9 Effect of compound 45 on total (A) and hyperactive (B) sperm motility in mice in vivo. 45 was administered via intraperitoneal injection at a dosage of 40 mg/kg of body weight for 3 days. Total and hyperactive sperm motility was assessed using sperm from the cauda epididymis. Hyperactive motility was evaluated after incubating the cells in a medium that supports sperm capacitation for 1 h. Sperm motility was analyzed using CASA. […]

Where [4] appears, read: α4β1 in Sf9 insect cells, ± SEM of three experiments.

The source of these data is PMC12192727, “Strategies to Develop Na,K-ATPase-α4 Inhibitors as Male Contraceptives” (International Journal of Molecular Sciences, 2025).

Read-outs that look alike come from different tables or passages of the source.

T1 sequence (Q64541 whole entry, other chains not shown): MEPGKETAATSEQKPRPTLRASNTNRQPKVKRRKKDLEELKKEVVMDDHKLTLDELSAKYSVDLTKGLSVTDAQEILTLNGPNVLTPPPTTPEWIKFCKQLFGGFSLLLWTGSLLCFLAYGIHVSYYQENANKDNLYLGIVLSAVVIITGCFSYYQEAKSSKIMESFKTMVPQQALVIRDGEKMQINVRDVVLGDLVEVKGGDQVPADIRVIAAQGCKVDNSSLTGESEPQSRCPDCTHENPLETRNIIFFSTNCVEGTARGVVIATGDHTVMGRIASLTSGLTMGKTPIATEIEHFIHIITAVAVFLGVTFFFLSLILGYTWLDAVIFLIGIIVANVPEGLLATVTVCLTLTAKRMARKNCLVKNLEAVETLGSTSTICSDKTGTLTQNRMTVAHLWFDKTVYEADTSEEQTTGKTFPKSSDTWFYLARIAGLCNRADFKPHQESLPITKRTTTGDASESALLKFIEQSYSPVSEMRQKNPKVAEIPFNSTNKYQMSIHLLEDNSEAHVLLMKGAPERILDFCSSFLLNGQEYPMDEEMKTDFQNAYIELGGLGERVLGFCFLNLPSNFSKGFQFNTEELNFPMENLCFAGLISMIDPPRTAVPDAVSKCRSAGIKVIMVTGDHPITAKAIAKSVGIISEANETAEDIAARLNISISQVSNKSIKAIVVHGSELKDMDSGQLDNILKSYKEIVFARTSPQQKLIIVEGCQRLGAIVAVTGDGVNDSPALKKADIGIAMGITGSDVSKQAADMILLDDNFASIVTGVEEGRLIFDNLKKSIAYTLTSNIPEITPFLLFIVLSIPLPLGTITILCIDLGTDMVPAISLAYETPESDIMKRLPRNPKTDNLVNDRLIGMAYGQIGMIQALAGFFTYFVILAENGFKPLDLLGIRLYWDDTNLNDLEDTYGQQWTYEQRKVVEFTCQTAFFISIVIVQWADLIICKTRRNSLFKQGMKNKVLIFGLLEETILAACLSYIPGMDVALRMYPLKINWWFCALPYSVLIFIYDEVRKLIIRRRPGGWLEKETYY
T2 sequence (Q12809 whole entry): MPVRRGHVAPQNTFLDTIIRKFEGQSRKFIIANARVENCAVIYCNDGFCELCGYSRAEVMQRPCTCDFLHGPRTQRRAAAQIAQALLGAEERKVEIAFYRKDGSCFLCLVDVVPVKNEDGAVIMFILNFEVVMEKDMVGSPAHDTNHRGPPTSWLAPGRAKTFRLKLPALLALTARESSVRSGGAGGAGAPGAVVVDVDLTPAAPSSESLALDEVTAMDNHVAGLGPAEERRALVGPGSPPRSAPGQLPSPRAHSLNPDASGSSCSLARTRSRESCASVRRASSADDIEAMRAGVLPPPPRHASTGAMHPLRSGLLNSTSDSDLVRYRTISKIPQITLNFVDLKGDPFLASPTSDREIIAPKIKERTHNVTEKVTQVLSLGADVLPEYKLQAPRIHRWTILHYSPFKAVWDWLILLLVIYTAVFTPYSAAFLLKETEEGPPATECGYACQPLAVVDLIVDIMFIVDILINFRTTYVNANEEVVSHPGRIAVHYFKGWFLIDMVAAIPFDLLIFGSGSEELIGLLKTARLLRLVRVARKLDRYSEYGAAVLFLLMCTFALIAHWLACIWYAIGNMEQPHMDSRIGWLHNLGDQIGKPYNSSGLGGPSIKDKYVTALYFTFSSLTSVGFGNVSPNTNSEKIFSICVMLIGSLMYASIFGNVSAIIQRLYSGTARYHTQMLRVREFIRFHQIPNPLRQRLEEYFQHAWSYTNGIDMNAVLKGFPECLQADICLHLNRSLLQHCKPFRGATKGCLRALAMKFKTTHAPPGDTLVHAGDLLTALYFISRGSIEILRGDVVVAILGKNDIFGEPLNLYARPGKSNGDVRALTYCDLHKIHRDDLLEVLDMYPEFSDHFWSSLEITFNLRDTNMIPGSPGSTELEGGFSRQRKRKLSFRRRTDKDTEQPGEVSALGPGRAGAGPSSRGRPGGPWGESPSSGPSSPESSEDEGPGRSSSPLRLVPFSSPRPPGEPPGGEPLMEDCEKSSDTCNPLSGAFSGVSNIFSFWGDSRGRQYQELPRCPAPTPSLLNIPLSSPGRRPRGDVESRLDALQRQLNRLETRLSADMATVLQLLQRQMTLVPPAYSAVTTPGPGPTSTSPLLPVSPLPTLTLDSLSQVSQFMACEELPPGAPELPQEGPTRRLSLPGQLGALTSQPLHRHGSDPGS

For `C[C@]12CC[C@H]3[C@@H](CC=C4C[C@@H](O)CC[C@@]43C)[C@@H]1CC[C@@H]2c1cn(Cc2ccccc2)nn1` [Compound 13, (3S,8S,9S,10R,13S,14S,17S)-17-(1-Benzyl-1H-1,2,3-triazol-4-yl)-10,13-dimethyl-2,3,4,7,8,9,10,11,12,13,14,15,16,17-tetradecahydro-1H-cyclopenta[a]phenanthren-3-ol], the basolateral-to-apical permeability (Papp B→A) (commonly how fast a substance crosses the layer from the basolateral side) in the data set “MDCK cell permeability” was 0.78 ×10⁻⁶ cm/s. The efflux ratio – broadly, a quotient of directional permeabilities that is used to spot active efflux – in the data set “MDCK cell permeability” worked out at 1.24. The Papp A→B (as a rule, the apparent permeability from the apical to the basolateral side of a cell layer) in the data set “MDCK cell permeability” (Papp (A-B), MDCK cells, BSA 0% for controls, 0.5% for 13) amounted to 0.63 ×10⁻⁶ cm/s; in the data set “MDCK cell permeability” (Permeability Papp (A-B), MDCK cell line, 0.5% BSA), 0.6 ×10⁻⁶ cm/s. The “Permeability Papp (A-B)” value with MDCK cells was “poor”. Moreover, the values for the recovery in the data set “in vitro” (Recovery (%) AP-BL) and in “in vitro” (Recovery (%) BL-AP) were 70.2% and 88.1%, respectively. On NKAα4, the 50% inhibitory concentration (IC50) – broadly, the point on the concentration scale where inhibition reaches its midpoint – was determined as 0.1 nM. At NKAα4 (setting [4]), the “NKA Isoform Specificity (IC50 M) NKAα4” value was “nanomolar range”.

`CC12CCC(=O)C=C1CCCC2n1cc(-c2ccccc2)nn1` (stereo not drawn) [Compound 45, 4a-Methyl-5-(4-phenyl-1H-1,2,3-triazol-1-yl)-4,4a,5,6,7,8-hexahydronaphthalen-2(3H)-one]: on hERG channel [1], the “hERG IC50” value is recorded as “weak inhibitor”. The IC50 is > 30000 nM against hERG channel [2] and 2.7 nM at NKAα4 (α4β1 in Sf9 insect cells, ± SEM of three experiments, read-out: NKA Isoform Specificity (IC50 M) NKAα4). For the same molecule, in data set [3] (read-out: In vitro Clint), the hepatocyte CLint at 1 μM was 36 µL/min/1e6 cells. For the same molecule, the CLint scaled at 1 µM in data set [3] (read-out: Scale-up Clint) turned out to be 91.7 mL/min/kg. Also, the half-life at 1 µM in data set [3] (human, hepatocytes, read-out: In vitro T1/2) is 38.5 min. The “Remaining Percentage (%)” value in the data set on human hepatocytes (human boiled hepatocytes, 0 min) was found to be 100.00%; in the data set on human hepatocytes (human boiled hepatocytes, 15 min), 105.47%; with human hepatocytes (human boiled hepatocytes, 30 min) it was 106.55%; with human hepatocytes (human boiled hepatocytes, 60 min), 108.22%; in the data set on human hepatocytes (human boiled hepatocytes, 90 min), 105.29%; with human hepatocytes (human boiled hepatocytes, 120 min), 107.99%. In addition, the “Remaining Percentage (%)” value in the data set on human hepatocytes (human hepatocytes, 0 min) was 100.00%; in the data set on human hepatocytes (human hepatocytes, 15 min) it was 83.47%; in the data set on human hepatocytes (human hepatocytes, 30 min) it was 64.22%; with human hepatocytes (human hepatocytes, 60 min) it was 39.26%; in the data set on human hepatocytes (human hepatocytes, 90 min) it was 22.24%; with human hepatocytes (human hepatocytes, 120 min), 11.51%. The “Hepatic Extraction Ratio (E)” value with human hepatocytes (human hepatocytes) stood at 0.82. The “Predicted hepatic CL” value in the data set with human hepatocytes (human hepatocytes) is 16.89 mL/min/kg. Also, the “Metabolic Stability in Hepatocytes (60 min), compound remaining” value with human hepatocytes (human, 60 min) was 39%. The “Hyperactive sperm motility in vivo” value in the data set with mouse sperm (capacitating medium 1 h) is given as “reduced”. In the data set with mouse sperm (cauda epididymis sperm, CASA), the “Inhibition of total sperm motility in vivo” value is “approximately 60%”. In addition, the “NKA Isoform Specificity (IC50 M) NKAα4” value on NKAα4 (setting [4]) was “nanomolar range”.
